{"source": "patent US7732460B2", "about": "(priority 2005, dated 2010)", "test_system": "panel of Gram-positive organisms (Staphylococcus aureus, Streptococcus pneumoniae, Streptococcus pyogenes, Enterococcus faecalis, Enterococcus faecium) and …", "type": "cell-based, Gram-positive and Gram-negative bacteria", "details": "against all of the strains representing the organisms listed; serial two-fold dilutions 0.016 to 16 mcg/mL"}
{"compound": "COc1cnc2ccc(=O)n3c2c1[C@](O)(CN1CCC(NCc2cc4c(nn2)OCCO4)CC1)C3", "note": "[Example 66]", "values": [{"measurement": "MIC values", "value": "> 16", "unit": "µg/mL"}]}
